The values below come from US5994320A, “Antisense oligonucleotides and methods for treating central nervous system tumors” (Regents of the University of Minnesota, priority 1997, dated 1999).

In data set [1] the test system is human U87 glioblastoma cells. As to the kind of experiment: Intracerebral infusion, survival of nude rats with intrastriatal U87 xenografts. Format: in vivo. Particulars: 0.1 nmole/hour continuous infusion over 14 days; saline animals survived only 13 days. On the procedure: The effects of infusing c-myb antisense to codons 2-7 on the survival of nude rats with intrastriatal xenografts of human U87 glioblastoma cells was examined. A dose of 0.1 nmole/hour was infused. This dose is equivalent to the delivery of 100 µM of c-myb antisense injected directly into intraflank U87 tumors in 50 Ul volumes on alternate days. Animals received continuous infusions of either c-myb antisense or saline by Alzet Osmotic Minipump (Alza, Palo Alto, Calif.) over a period of 14 days. The pump was implanted immediately above the site of the tumor.

The subject of data set [2] is U87 glioblastoma cell line. As to the kind of experiment: 3H-thymidine assay of U87 cell proliferation. In kind it is cell-based, human. Particulars: U87 cells, 5 nanomoles/500 microliters; for 3H-thymidine incorporation, mean ± SEM: 2 days; for % Control (proliferation): 2 days (48 hours). On the procedure: (§1) Antisense oligonucleotides were incubated with glioblastoma (T98, U87, U373) and medulloblastoma (DAOY) cell lines when they were approximately 60% confluent. Antisense oligonucleotides were added at 5 nanomoles/500 microliters and incubated for 2 days in phosphate buffered saline. Growth of cells lines was measured at 2 days using a standard ^3 H-thymidine assay. Coligan et al., Current Protocols in Immunology, Vol. 2, pg.
(In general: Dividing cells build labelled thymidine or BrdU into new DNA.)

A short description of data set [3]: Toxicity of intraventricular antisense administration (Whitesell et al.). The conditions noted are these: 0.1 nmole/hr versus toxic 3.0 nmole/hr. In kind it is in vivo, rats. The method, then:
In a study assessing the toxicity of intraventricular antisense administration (Whitesell et al., Proc. Natl. Acad. Sci., 90:4665-4669, 1993), it was determined that dosages of 1.5 nmoles/hr were well tolerated in rats while a dose of 3.0 nmole/hr was toxic. […] Therefore, it is believed that an increase in dose of the c-myb antisense can be administered that will improve survival without toxic side effects.

The subject of data set [4] is U87 gliomas. Kind of data set: Intraflank U87 tumors in nude mice, intratumoral injection. Format: in vivo, athymic nude mice. Particulars: for Change in tumor size at day 21: 100 μM, 50 μl (5 nanomoles/injection) intratumorally every two days, days 13 to 21. On the procedure: Solid U87 gliomas were established in the flanks of athymic nude mice aged 4-6 weeks. Each animal received 5×10^6 U87 cells in 200 μl of medium. The cells were injected subcutaneously into one flank through a 25-gauge needle attached to a tuberculin syringe.
Cells were initially grown in a monolayer at 37° C. in DMEM medium containing 10% fetal calf serum, 2 mM glutamine, 1000 IU/ml of penicillin, and 100 μg/ml of streptomycin. Cells were harvested from culture flasks using trypsin immediately before injection and were kept on ice until the time of injection. Before injection the number of viable cells were confirmed by trypan blue exclusion. Past experience has shown that approximately 90% of tumors will successfully grow in the flank after U87 cell inoculation.
Tumors were allowed to grow for 14 days. Tumor size was evaluated with Vernier calipers using the formula 1/2 length(width)^2 where the length was the longest dimension and the width was the diameter perpendicular to the length. AONcmyb(2-7) was then injected using a Hamilton syringe directly into the tumor at a concentration of 0, 1, 10, or 100 μM in 50 μl volumes on alternate days for 8 days (FIG. 1).
The effects of administering 100 μM concentrations of AONcmyb(2-7) and AONcmyb(182-188) with their corresponding nonsense oligonucleotides, NONcmyb(2-7) and NONcmyb(182-188) along with Hank's Balanced Salt Solution as controls was compared. From days 13 to 21 animals received 50 μl(5 nanomoles/injection) injections intratumorally of either antisense, nonsense, or HBSS every two days.

Data set [5] deals with DAOY medulloblastoma cell line. Kind of data set: 3H-thymidine assay of DAOY cell proliferation. Format: cell-based, human. Particulars: DAOY cells, 5 nanomoles/500 microliters; for 3H-thymidine incorporation, mean ± SEM: 2 days; for % Control (proliferation): 2 days (48 hours). On the procedure:
as §1

Data set [6] has as its system U373 glioblastoma cell line. As to the kind of experiment: 3H-thymidine assay of U373 cell proliferation. In kind it is cell-based, human. Particulars: U373 cells, 5 nanomoles/500 microliters; for 3H-thymidine incorporation, mean ± SEM: 2 days; for % Control (proliferation): 2 days (48 hours). The method, then: as §1
For data set [7], the system named is EGF receptor. Kind of data set: EGF receptor expression by flow cytometry in T98 and U87 cells. Format: cell-based, human. Particulars: 10 μM, 48 hours. The method, then:
The effects of c-myb antisense on the expression of epidermal growth factor (EGF) receptors in T98 and U87 cells in vitro was examined using a flow cytometric approach to quantify fluorescently labeled receptors. T98 and U87 cell lines that were treated with 10 μM antisense oligonucleotides for 48 hours were harvested. About 10^5 10^6 (number of cells) were incubated with fluorescently labeled antibody to EGF receptor (available from Upstate Biotech, Inc.) for 24 hours. The cells were then analyzed using a Beckman FACS cell sorter.
Cells for receptor expression assays were harvested, washed twice in PBS and fixed in 70% ethanol of 2% paraformaldehyde. After washing, cells were incubated with appropriate concentrations of specific receptor antibodies for 2-12 hours. Antibody conjugated FITC was then added to the cell suspensions. Cells were washed well between steps and resuspended in Hanks balanced salt solution, 1% sodium azide, and 1% bovine serum albumin. FITC fluorescence was then assayed by flow cytometry counting 10,000 cells per sample. The amount of fluorescently labeled EGF receptor and PDGF receptor were determined by standard flow cytometry analysis.

The test system of data set [8] is T98 glioblastoma cell line. As to the kind of experiment: 3H-thymidine assay of T98 cell proliferation. In kind it is cell-based, human. The conditions noted are these: T98 cells, 5 nanomoles/500 microliters; for 3H-thymidine incorporation, mean ± SEM: 2 days; for % Control (proliferation): 2 days (48 hours). On the procedure: as §1

Turning to “5'-GTG CCG GGG TCT TCG GGC-3' (antisense GTGCCGGGGTCTTCGGGC; chemistry not given here) [AONcmyb(2-7), antisense to the initiator region of c-myb, codons 2-7]”, the “Animals with increased survival times” value in data set [1] turned out to be 25%. Moreover, the “3H-thymidine incorporation, mean ± SEM” value is on record as 74,688 ± 10,145 dpm in data set [2], 604,061 ± 59,989 dpm in data set [5], 402,504 ± 49,647 dpm in data set [6] and 67,318 ± 6,183 dpm in data set [8]. Also, the “% Control (proliferation)” value in data set [2] is 20%; in data set [5], 53%; in data set [6] it was 52%; in data set [8] it was 53%. For the same substance, in data set [3], the “Factor by which the dose used is below the toxic level for antisense in the brain” value is 30 times. The “Suppression of tumor growth, comparison of concentrations” value in data set [4] (100 μM versus 0, 1, 10 μM, 50 μl intratumoral on alternate days for 8 days) was “most effective in suppressing tumor growth”. Besides, the “Change in tumor size at day 21” value in data set [4] is on record as “no significant change”. The “EGF receptor binding, % of control levels” value in data set [7] is given as 13%-30%.

For “5'-TGTAGAATTCCAGTGGTTCTT-3' (antisense TGTAGAATTCCAGTGGTTCTT; chemistry not given here) [AONcmyb(182-188)]”, the “3H-thymidine incorporation, mean ± SEM” value in data set [2] is reported as 92,968 ± 37,259 dpm; in data set [5] it was 517,725 ± 105,450 dpm; in data set [6] it was 588,082 ± 25,836 dpm; in data set [8], 78,457 ± 3,224 dpm. Further, the “% Control (proliferation)” value in data set [2] was determined as 25%; in data set [5], 45%; in data set [6], 76%; in data set [8] it was 61%. Moreover, the “Change in tumor size at day 21” value in data set [4] is reported as “no significant change”. Moreover, in data set [7], the “EGF receptor binding, % of control levels” value is 30%-35%.
